Assays:
OVCAR3 cells = test: Cell viability, Alamar blue, siRNA; format: cell-based; conditions: OVCAR3, any siRNA concentration tested, vs NC-siRNA
Experimental: (§1) OVCAR3CIS cells (3.0×10^4 cells/mL) or SKOV3ip1CIS (3.0×10^4 cells/mL) were seeded into 12-well plates. Twenty-four hours later, cells were transfected with 100 nM (final concentration) of each siRNA. The next day, 400 cells (OVCAR3CIS) or 1,000 cells (SKOV3ip1CIS) were seeded into 6-well plates and incubated for seven days, fixed and stained with 0.5% crystal violet in methanol. Colonies of at least 50 cells were counted using a light microscope (CKX41: Olympus, Center Valley, PA, USA) with a total magnification of 40x. For cell viability assays, OVCAR3 and OVCAR3CIS (3.0×10^4 cells/mL) or SKOV3ip1and SKOV3ip1CIS (3.5×10^4 cells/mL) were seeded into 96-well plates, and 24 hours later, siRNA transfection was performed as described above. The next day, the transfection mix was replaced with cisplatin (CIS) (2.5 uM final concentration dissolved in regular cell culture media) and after forty-eight hours, the medium was removed, and Alamar blue dye (Invitrogen, Thermo Fisher Scientific, Eugene, OR, USA) was added following the manufacturer's instructions. Optical density (OD) was measured, and percentages of cell viability were calculated after blank OD subtraction. Untreated cells were assessed as 100% cell viability.

SKOV3ip1 cells = test: Cell viability, Alamar blue, siRNA; format: cell-based, human; conditions: SKOV3ip1, any siRNA concentration tested, vs NC-siRNA
Experimental: as §1

Caspase-3 = Caspase-3 fluorometric activity in OVCAR3CIS cells; format: cell-based; conditions: 72 hours after transfection, vs NC-siRNA
Experimental: Caspase-3 activity was quantified using the Caspase-3/CPP32 Fluorometric Assay Kit (BioVision CA, USA) as per the manufacturer's instructions. OVCAR3CIS (3.0×10^4 cells/mL) or SKOV3ip1CIS (3.5×10^4 cells/mL) were seeded into 10 cm Petri dishes and transfected with NC-siRNA or CASC10-siRNA (2). Twenty-four hours later, the media was replaced by regular media, and seventy-two hours after transfection, cells were collected, pellets lysed, and total protein concentration determined. Equal amounts of protein were mixed with 2×Reaction Buffer and 1 mM DEVD-AFC substrate in a 96-well plate and incubated at 37° C. for 2.5 hours. Fluorescence intensity at 400 nm excitation and 505 nm emission was measured.

SKOV3ip1CIS cells = test: Western blot of apoptotic-related and cell-cycle related proteins; format: cell-based, human
Experimental: Cell pellets were lysed with complete lysis buffer and total protein concentration […]. Protein samples were separated by SDS-PAGE, blotted onto nitrocellulose membranes, blocked in either 5% non-fat dry milk (Bio-Rad) or 5% BSA (HyClone), and probed with the appropriate dilution of corresponding primary antibody. Membranes were rinsed and incubated with corresponding HRP-conjugated secondary antibody, followed by enhanced chemiluminescence and autoradiography.

## CASC10-siRNA (2): siRNA targeting CASC10 RNA, SEQ ID NO 3 and 4: 5′ GACUCUUGGAUCCAAGUUU(dT)(dT) 3′ / 5′ AAACUUGGAUCCAAGAGUC(dT)(dT) 3′ (chain 1 GACUCUUGGAUCCAAGUUUNN; chain 2 AAACUUGGAUCCAAGAGUCNN; 3' dTdT overhangs, chemistry not fully specified)
OVCAR3 cells
  cell viability: did not significantly reduce cell viability
SKOV3ip1 cells
  cell viability: did not significantly reduce cell viability
Caspase-3
  increase in caspase-3 activity: 5 fold
SKOV3ip1CIS cells
  Bcl-2 decrease: 66%
  cleaved Caspase-3 increase: 6 fold
  cleaved Caspase-9 increase: 2 fold
  cleaved PARP-1 increase: 7 fold
SKOV3ip1CIS cells; vs NC-siRNA
  CDK4 protein: reduction
  Cyclin E1 protein: reduction
  p27 protein levels: reduction
